Values quoted from earlier work, collected in US11701425B2, “Valerian composition and related methods” (Société des Produits Nestlé S.A., priority 2016, dated 2023).

Conditions: reported value, no test by the applicant

SMILES | pKa
CC1=C2[C@H](/C=C(\C)C(=O)O)CC[C@@H](C)[C@H]2CC1 [valerenic acid] | about 5
CCCC(CCC)C(=O)O [valproic acid] | about 5
